Results as given in patent publication US20210069169A1, “PHARMACEUTICAL COMPOSITIONS” (priority 2007, published 2021).
Read-outs that look alike come from different tables or passages of the source.

Columns and labels:
[1] = ERC-213: serum DHEA and eleven metabolites after daily intravaginal DHEA suppositories; format: in vivo, postmenopausal women; conditions: highest dose (Table 2)
From the text: The primary objective of that study was the evaluation of the systemic bioavailability of DHEA and its metabolites following daily intravaginal application of suppositories at four different DHEA concentrations. This study was a randomized, placebo-controlled and double-blind trial of 10-subjects per arm.

[2] = tested on: postmenopausal women suffering from vaginal atrophy; test: ERC-210: vaginal examination (secretions, color, epithelial integrity, thickness); format: in vivo; conditions: 2, 4, 8 and 12 weeks
From the text: At the same time intervals of 2, 4, 8 and 12 weeks, the gynecologist or physician in charge of the study at each site performed a vaginal exam to evaluate the degree of severity (none, mild, moderate or severe, analyzed using values of 0, 1, 2 and 3, respectively) for the main signs of vaginal atrophy, namely vaginal secretions, vaginal color, vaginal epithelial integrity and vaginal epithelial surface thickness. […] In fact. the beneficial effects observed by the gynecologist and or physician are almost superimposable to those self-reported by women on their most bothersome symptoms.
Vaginal examination was performed at screening and then at day 1 and at 2, 4, 8 and 12 weeks. Vaginal secretions, vaginal color, vaginal epithelial integrity and vaginal epithelial surface thickness were evaluated according to the following degrees of severity: none, mild, moderate or severe.

[3] = tested on: endometrium; test: ERC-210: endometrial biopsy; format: in vivo, postmenopausal women; conditions: 3 months intravaginal; biopsies before and after 12 weeks
Procedure: Endometrial biopsy was performed at screening and at month 3 at end of study. All biopsies were examined by the same pathologist at the central laboratory (Dr. Robert Dubé, Department of cytology-pathology, Enfant-Jésus Hospital, Quebec City, Canada).

[4] = Example 2: serum steroids after oral DHEA capsules or percutaneous DHEA cream or gel
From the text: Thirty-six healthy 60-70-year-old postmenopausal women participated in the study after IRB approval and having given their written informed consent. Body weight was within ±20% of normal body weight according to Metropolitan Life Tables.
This study was a randomized open-label trial of 12 subjects per arm. After written informed consent was obtained and women were found eligible, each subject was randomized to receive DHEA by cream, get or orally. Daily, before breakfast, for 14 days, subjects received, at the research clinic, either 4 g of 10% DHEA gel or 4 g of 10% DHEA cream applied on a total 30 cm×30 cm area of the thighs or two 50 mg capsules of DHEA orally before breakfast.
Blood sampling was performed at 08:00-09:00 h at screening and before application of DHEA, on the first day of dosing, as well as on days 2, 4, 7, 10 and 14. On the 1st and 14th days, blood samples were obtained at 0.5 h, 1 h, 1.5 h, 2 h, 3 h, 4 h, 5 h, 6 h, 7 h, 8 h, 12 h and 24 h following DHEA administration. […] Serum steroid analysis
DHEA, DHEA-S, androst-5-ene-3β,17β-diol (5-diol), testosterone, androstenedione (4-dione), 17β-estradiol (E2), estrone (E1), estrone sulfate (E1-S), androsterone glucuronide (ADT-G), and androstane-3,17β-diol glucuronide (3 α-diol-G) were measured by gas chromatography/mass spectrometry (DHEA, 5-diol, 4-dione, testosterone, E1 and E2) using electron impact or chemical ionization and by liquid chromatography/tandem mass spectrometry using turboionspray (DHEA-S, E1-S, ADT-G and 3α-diol-G) as described (Labrie, Bélanger et a., 2006; Labrie, Bélanger, et al, 2007b and Swanson et al. 2007).
On days 1 and 14, the area under the curve of the serum concentration of each steroid was measured between 0 h and 24 h (AUC0-24 h). The areas under the curves were calculated by a linear trapezoidal method (model-independent). The relative bioavailability of the DHEA gel, DHEA cream and DHEA capsules was based on the mean difference in the log-transformed AUC values, All calculations were performed with the SAS software (SAS Institute, Cary, N.C., USA).

[5] = tested on: postmenopausal women; conditions: cited from earlier work
[6] = cited from earlier work
[7] = oral 150 mg (Buster et al. 1992)
[8] = oral 300 mg (Buster et al. 1992)

With `C[C@]12CC[C@H](O)CC1=CC[C@@H]1[C@@H]2CC[C@]2(C)C(=O)CC[C@@H]12` [DHEA, dehydroepiandrosterone] the “Average serum DHEA” value [1] was 4.76 ± 0.42 ng/mL, the “Signs of vaginal atrophy at vaginal exam” value [2] was “highly statistically significant improvement of all four signs of vaginal atrophy” and the Endometrial histology [3] was “no effect on endometrial histology”. For the same compound, the “Higher amount of circulating DHEA-S at same DHEA exposure, oral vs percutaneous” value ([4]; female, human, serum, po) was 6.7-9.0 fold, the “Transformation of DHEA into 4-dione, oral vs percutaneous” value ([4]; female, human, serum, po) was 2.70-3.76 times and the “Efficacy of transformation into active androgens” value ([4]; percutaneous DHEA (DHEA change 406%)) was 52%.

In the case of `C[C@]12CC[C@@H]3c4ccc(O)cc4CC[C@H]3[C@@H]1CC[C@@H]2O` [E2, 17β-estradiol], the “% of cases with persisting dyspareunia” value ([5]; 25 μg intravaginally, 12 months) is listed as 12.4% and the “% of patients with pH less than 5” value ([5]; 12 weeks intravaginal 25 μg E2 (Bachmann et al. 2008)) is listed as 51%.

In the case of `CCCCC(=O)O[C@H]1CC[C@H]2[C@@H]3CCc4cc(O)ccc4[C@H]3CC[C@]12C` [estradiol valerate], the “Increase of Ki labeling in endometrium” value ([5]; 2 mg/day, 3 months) is given as 50%.

In the case of `C[C@]12CC[C@H](O)CC1=CC[C@@H]1[C@@H]2CC[C@]2(C)C(=O)CC[C@@H]12` [micronized DHEA], the “Maximal serum DHEA-S” value [6, 7] is listed as ~10 µg/mL, the Maximal serum testosterone [6, 7] is listed as ~1.6 ng/mL and the “Maximal serum DHEA” value [6, 8] is listed as ~15 ng/mL. For the same compound, the Maximal serum testosterone [6, 8] was ~2.75 ng/mL.

For `CCCCCCCCCCC(=O)O[C@H]1CC[C@H]2[C@@H]3CCC4=CC(=O)CC[C@]4(C)[C@H]3CC[C@]12C` [testosterone undecanoate], the “Effect on the endometrium” value ([5]; 40 mg every second day) is given as “no effect on the endometrium”.
